Like-named read-outs stand apart in the source and are kept apart here.
Tests used:
[1] = human, in vivo
[2] = test system: MERS-CoV (Jordan strain); type: cell-based; conditions: Vero-76 cells
[3] = test system: SARS-CoV-2; test: Randomized placebo-controlled dose-ranging study, IV infusion in hospitalized adults with COVID-19 (Part 1)
[4] = human, in vivo; remark: listed apart in the source
[5] = test system: SARS-CoV-2 (WA1/2020 isolate); test: SARS-CoV-2 hamster model of infection; conditions: for lung tissue histopathology (total histology score) vs vehicle control: Days +3 and +7; for lung viral burden lower than vehicle control: 100 mg/kg BID i.p., Day 3 post-infection
[6] = human, in vivo; remark: listed apart in the source
[7] = test system: SARS-CoV-2 (WA1/2020 strain); test: Virus yield reduction (VYR) assay, SARS-CoV-2 in Vero76 cells; type: cell-based; conditions: for EC90: Vero76 cells
[8] = Phase 1 single ascending dose study, intravenous administration in healthy human subjects; type: in vivo; conditions: for AUC0-inf / AUC24 / CL / Cmax / Vz / t1/2 / AUCt: geometric mean, preliminary; for AUCt: t 120 h to 480 h
Protocol: The agent used in this Example was compound A (the compound of formula I, where A is NH2 and B is H as the HCL salt). A phase 1 double-blind, placebo-controlled, single ascending dose study was conducted to evaluate the safety, tolerability, and pharmacokinetics of Compound A administered by intravenous (IV) administration in healthy human subjects. Four cohorts were administered the study drug at the following doses: 5 mg/kg, 10 mg/kg, 15 mg/kg, and 20 mg/kg. Eight subjects received a single IV dose per cohort (6 subjects received Compound A; 2 subjects received matching placebo). Subject dosing was staggered as a safety precaution.
The plasma PK concentration-time profile of Compound A at all doses was characterized by an initial rapid distribution and clearance phase, and a slow terminal clearance phase. […] The inter-subject variability in exposure (Cmax and AUC) was low, as reflected in the geometric mean coefficients of variance (CVs) on these parameters. No subjects met any stopping criteria for any cohort.

[9] = NOAEL exposure in NHP; type: in vivo; conditions: 30 mg/kg dose
[10] = test system: SARS-CoV (Urbani strain); type: cell-based; conditions: Vero-76 cells
[11] = test system: Vero76 cells
[12] = EC50 adjusted with CLE, read-out: Adjusted EC50
[13] = NR uptake, MOI 0.001, 3 days, read-out: EC50

Structure (SMILES): Nc1ncnc2c([C@@H]3N[C@H](CO)[C@@H](O)[C@H]3O)c[nH]c12 [Compound A]
- safety and tolerability [1]: generally safe and well tolerated
- EC50 [2, 12]: 2.15 µM
- EC50 [2, 13]: 26.9 µM
- safety and tolerability ([3]; Cohorts 1-3, IV loading/maintenance regimens for 7 days, hospitalized COVID-19 patients): safe and generally well tolerated
- clinical efficacy compared to placebo ([3]; Cohorts 1-3, Part 1 not sized for efficacy): no clinical efficacy benefit
- decline in viral RNA levels in the respiratory tract ([3]; Cohorts 1-3, apparent dose-dependent manner): more rapid decline in viral RNA levels in the respiratory tract
- time to a negative viral RNA result in LRT samples compared to placebo ([3]; Cohorts 1-3, shortest in Cohorts 2 and 3): shorter time to a negative viral RNA result
- safety and tolerability [4]: generally safe and well tolerated
- lung tissue histopathology (total histology score) vs vehicle control ([5]; Group 1 (first dose −24 hours)): reduced/no tissue histopathology as compared with vehicle control
- animals that achieved PFU<10 (lower limit of quantification) in OP swabs ([5]; Group 1, 100 mg/kg BID i.p., first dose −24 hr): 62.5%
- weight loss ([5]; Group 1, 100 mg/kg BID i.p., first dose −24 hr relative to infection): < 5%
- lung tissue histopathology (total histology score) vs vehicle control ([5]; Group 2 (first dose +1.5 hours)): reductions relative to vehicle control
- lung viral burden lower than vehicle control ([5]; Group 3 (first dose +24 hours)): ~0.66 log
- clinical scores, adverse impact of dosing ([5]; Groups 1-3, 100 mg/kg BID i.p.): no adverse impact
- lung viral burden lower than vehicle control ([5]; Groups 1 and 2 (first dose −24 and +1.5 hours)): 1.4-1.6 log
- dose proportionality of exposure [6]: dose-proportional and linear with increasing dose
- safety and tolerability [6]: generally safe and well tolerated
- time after administration at which plasma concentrations were maximal [6]: 1 to 2 h
- increase in exposure (AUC) with repeat dosing ([6]; im): approximately 1.5 fold
- t1/2 ([6]; im, 2.5 mg/kg): 104 (15.9) h
- t1/2 ([6]; im, 5 mg/kg): 85.7 (17.3) h
- AUC0-24 ([6]; im, 10 mg/kg): 20300 ng·h/mL
- AUCtau ([6]; im, 10 mg/kg): 34500 ng·h/mL
- Cmax ([6]; im, 10 mg/kg): 7980 ng/mL
- Tmax ([6]; im, 10 mg/kg): 0.375 h
- t1/2 ([6]; im, 10 mg/kg): 113 (26.4) h
- EC90 ([7]; EC90 adjusted with CLE, read-out: Adjusted EC90): 0.87 µM
- SI ([7]; SI=CC50/EC90, Vero76 cells): >27
- EC90 ([7]; VYR at day 3, MOI 0.002, compound added 24 hours prior to infection, read-out: EC90): 10.9 µM
- AUC0-inf ([8]; single IV dose 5 mg/kg): 21200 ng·h/mL
- AUC24 ([8]; single IV dose 5 mg/kg): 10950 ng·h/mL
- CL ([8]; single IV dose 5 mg/kg): 17.1 L/h
- Cmax ([8]; single IV dose 5 mg/kg): 5540 ng/mL
- Vz ([8]; single IV dose 5 mg/kg): 2725 L
- t1/2 ([8]; single IV dose 5 mg/kg): 111 h
- AUCt ([8]; single IV dose 5 mg/kg): 17100 ng·h/mL
- AUC0-inf ([8]; single IV dose 10 mg/kg): 37100 ng·h/mL
- AUC24 ([8]; single IV dose 10 mg/kg): 21070 ng·h/mL
- CL ([8]; single IV dose 10 mg/kg): 20.7 L/h
- Cmax ([8]; single IV dose 10 mg/kg): 10300 ng/mL
- Vz ([8]; single IV dose 10 mg/kg): 3049 L
- t1/2 ([8]; single IV dose 10 mg/kg): 114.5 h
- AUCt ([8]; single IV dose 10 mg/kg): 32400 ng·h/mL
- AUC0-inf ([8]; single IV dose 15 mg/kg): 65900 ng·h/mL
- AUC24 ([8]; single IV dose 15 mg/kg): 34370 ng·h/mL
- CL ([8]; single IV dose 15 mg/kg): 16.7 L/h
- Cmax ([8]; single IV dose 15 mg/kg): 17700 ng/mL
- Vz ([8]; single IV dose 15 mg/kg): 4138 L
- t1/2 ([8]; single IV dose 15 mg/kg): 182.5 h
- AUCt ([8]; single IV dose 15 mg/kg): 59900 ng·h/mL
- AUC0-inf ([8]; single IV dose 20 mg/kg): 81200 ng·h/mL
- AUC24 ([8]; single IV dose 20 mg/kg): 44770 ng·h/mL
- CL ([8]; single IV dose 20 mg/kg): 17.9 L/h
- Cmax ([8]; single IV dose 20 mg/kg): 20500 ng/mL
- Vz ([8]; single IV dose 20 mg/kg): 4010 L
- t1/2 ([8]; single IV dose 20 mg/kg): 133.5 h
- AUCt ([8]; single IV dose 20 mg/kg): 73400 ng·h/mL
- safety and tolerability ([8]; single IV dose 5-20 mg/kg, healthy subjects): generally safe and well tolerated
- dose proportionality of Cmax, AUCt and AUCinf ([8]; single IV doses 5-20 mg/kg): increased in dose-proportional manner
- NOAEL exposure [9]: approximately 52,500 ng*h/mL
- EC50 [10, 12]: 4.6 µM
- EC50 [10, 13]: 57.7 µM
- CC50 [11]: > 296 µM

From US12472197B2 (priority 2020, dated 2025)
